The values that follow are results of earlier work, collected in US20080103118A1, “COMPOSITION FOR IMPROVING BLOOD CHOLESTEROL LEVELS” (IOMEDIX DEVELOPMENT INTERNATIONAL SRL, priority 2006, published 2008).

For this data set the following is noted: 117 individuals, 63 Niacin, 54 placebo.

In the case of `O=C(O)c1cccnc1` [Niacin, nicotinic acid], the “high-density lipoprotein cholesterol (HDL-C)” value is “increase”, the “low-density lipoprotein cholesterol (LDL-C)” value was “decrease”, the total cholesterol result is reported as “decrease” and the triglyceride levels result is “decrease”.
